Measured values as given in patent US20040097521A1, “Clinical treatment” (priority 2000, published 2004).

Key:
[1] = system: human colon carcinoma cells (CaCo2); assay: Effects of NAC and di-NAC on human colon carcinoma cells (CaCo2) in culture; type: cell-based; settings: for local concentration for maximum inhibition of proliferation (no growth) / time to differentiate when treated: CaCo2; for toxic side effects: CaCo2, summary
Experimental: An established cell line of human colon carcinoma cells was used (CaCo2). CaCo2 is a proliferating human colon carcinoma cell line displaying irregular morphology, forming multiple cell layers with scarce microvillous structures and large intercellular spaces.
The CaCo2 cells were treated with various millimolar concentrations of NAC, ranging from 2 to 10 mM. NAC was added to the culture medium 24 hours after inoculation of the cells. After 3 days of culture in the presence of NAC the cells were analyzed for the following marker parameters: […]

[2] = system: primary normal human epidermal keratinocytes (NHEK); assay: Effects of NAC or di-NAC on primary normal human epidermal keratinocytes (NHEK) in culture; type: cell-based; settings: for cell-cell junctions / concentration of E-cadherins / tubulin expression: 2 mM; for cell-cell junctions / concentration of E-cadherins / tubulin expression / concentration for complete suppression of cell proliferation: 3 days; for concentration for complete suppression of cell proliferation: 1 to 10 mM; for toxic side effects: summary
Source text: Primary normal human epidermal keratinocytes (NHEK) obtained from Clonetics Inc. (San Diego, Calif., U.S.A.) were cultivated in the medium provided by the supplier. These cells have a limited life-span of about 15 days in culture and undergo a normal differentiation process of epidermal keratinocytes with a final enucleation and exfoliation. After inoculation the cells acquire a polygonal morphology cell-cell adhesions. The cytoskeleton morphology is quite organized, mainly at the cell borders.
NHEK cells were treated with various millimolar concentrations of NAC or di-NAC, ranging from 1 to 10 mM. The substances were added to the culture medium 24 hours after inoculation. After 3 days of culture in the presence of 2 mM of NAC or di-NAC the cells were analysed for the following marker parameters: […]

[3] = system: localized psoriatic plaques; assay: Local treatment of psoriatic plaques in volunteers with NAC or di-NAC cream; type: in vivo, human; settings: base-cream 10-20 weight %; for outcome of prolonged treatment: weeks to a few months; for most commonly reported side effect: with occlusive bandage
Source text: Five informed volunteers displaying localized psoriatic plaques were locally treated with a base-cream containing 10-20 weight % of NAC or di-NAC. The cream had been applied every night for variable periods—from weeks to a few months—with or without occlusive bandage. The skin of the patient was normally washed between each daily treatment. No other drugs were contemporarily used.

[4] = system: 1,2-dimethylhydrazine (DMH)-induced large intestinal tumors; assay: DMH-induced large intestinal tumors in rats; type: in vivo, male Sprague-Dawley rats
Source text: The effects of daily NAC treatment or intermittent NAC treatments on intestinal tumors, which had been induced by treating male Sprague-Dawley rats with 1,2-dimethylhydrazine (DMH), were investigated.

[5] = system: DHD/K12-PROb colon adenocarcinoma; assay: Colon adenocarcinoma (DHD/K12-PROb cells s.c.) in BD-IX rats; type: in vivo; settings: weekly injection
Experimental: In this experimental model BD-IX rats were divided into four groups: Groups G1 and G2, designated “cancer groups”, were used to study the effects of NAC on the progression of colon cancer, and Groups G3 and G4, designated “toxicity groups”, were used to study the effects of the treatment on metabolic processes and the parenchyma. DHD/K12-PROb cells were injected subcutaneously into the chest of Group G1 and G2 animals. From 1 to 13 weeks after inoculation the animals in Groups G2 and G4 received a weekly injection of NAC. The animals in Groups G1 and G3 received no treatment.

protein kinase C (PKC) = assay: AOM-induced rat colon cancer model, PKC activity; type: in vivo; settings: colonic mucosa and tumors, P<0.01
Experimental: (§1) Since the efficacy of NAC against colon cancer is significant, the mechanisms of inhibiting colon carcinogenesis were explored by investigating the activities of protein kinase C (PKC), tyrosine protein kinase (TPK), and diacylglycerol kinase (DGK) as well as the 8-isoprostane levels in colonic mucosa and tumor tissues in an azoxy-methane (AOM)-induced rat colon cancer model.
(§2) At seven weeks of age corresponding groups of rats were injected s.c. with azoxymethane (AOM; 15 mg/kg body weight, once weekly for 2 weeks), and different experiments were continued until 38 weeks after the second AOM treatment. Then, the rats were then sacrificed and colonic mucosal as well as tumor samples were evaluated for PKC, TPK, DGK, and 8-isoprostane levels.

[6] = system: tyrosine protein kinase (TPK); assay: AOM-induced rat colon cancer model, TPK activity; type: in vivo; settings: colonic mucosal and tumor, P<0.01
Experimental: as §1, §2

[7] = system: diacylglycerol kinase (DGK); assay: AOM-induced rat colon cancer model, DGK activity; type: in vivo; settings: P<0.01
Experimental: as §1, §2

8-isoprostane = assay: AOM-induced rat colon cancer model, 8-isoprostane levels; type: in vivo; settings: colonic tumors, versus control
Experimental: as §1, §2

[8] = system: 4NQO-induced rat malignant oral keratinocytes; assay: 4NQO-induced rat malignant oral keratinocytes transplanted orthotopically to athymic mice; type: in vivo; settings: for potential to metastasise: differentiated rat malignant oral keratinocytes, versus untreated
Source text: The effects of NAC or di-NAC on the metastatic capacity of clonal populations of 4NQO-induced rat malignant oral keratinocytes were examined after orthotopic transplantation to athymic mice. Polygonal cells and spindle cells formed well-differentiated squamous cell carcinomas (keratin positive and vimentin negative) and undifferentiated spindle cell tumors (keratin negative and vimentin positive), respectively, in all animals at the site of inoculation (floor of mouth).

[9] = cited from earlier work
myeloma type tumor cells = settings: in vitro; cited from earlier work
[10] = system: human colon carcinoma cells (CaCo2); assay: Effects of NAC and di-NAC on human colon carcinoma cells (CaCo2) in culture; type: cell-based; settings: CaCo2, di-NAC treatment
arteriosclerosis = settings: WHHL rabbits; cited from earlier work

SMILES: CC(=O)N[C@@H](CS)C(=O)O [NAC, N-acetyl-L-cysteine]
- local concentration for maximum inhibition of proliferation (no growth) [1]: about 1 mM
- time to differentiate when treated [1]: 3 days
- apoptosis / necrosis ([1]; CaCo2, 2 to 10 mM, 3 days): Neither apoptosis nor necrosis was observed
- concentration of maximum effect on decrease of cell proliferation ([1]; CaCo2, 2 to 10 mM, 3 days of culture): 2 mM
- cell-cell adhesion structures ([1]; CaCo2, 3 days of culture): increased number
- tubulin expression ([1]; CaCo2, 3 days of culture): strongly reduced
- cell viability ([1]; CaCo2, all doses added (2 to 10 mM), 3 days): unaffected
- toxic side effects [1]: without any detectable toxic side effects
- concentration at which reversion of colon cancer cells is induced [1]: 1 mM
- concentration at which colon carcinoma completely differentiate [1]: 5 mM
- local concentration for maximum inhibition of proliferation (no growth) ([2]; NHEK): about 1 mM
- time to differentiate when treated ([2]; NHEK): 3 days
- cell-cell junctions ([2]; NHEK): increased number
- concentration of E-cadherins ([2]; NHEK): increased
- tubulin expression ([2]; NHEK): reduced
- concentration for complete suppression of cell proliferation ([2]; NHEK): 2 mM
- cell viability ([2]; NHEK, all doses, up to 10 mM): unaffected
- toxic side effects ([2]; NHEK): no toxic side effects
- apoptosis / necrosis ([2]; NHEK, up to 10 mM): Neither apoptosis nor necrosis was observed
- concentration at which keratinocytes completely differentiate [2]: 1 mM
- minimum dose required to accelerate differentiation of normal keratinocytes [2]: 0.5 mM
- outcome of prolonged treatment [3]: complete remission of all symptoms
- most commonly reported side effect [3]: local hitching
- large intestinal tumor mass index ([4]; NAC-treated group, p<0.001 vs control): 0.04
- adenocarcinomas in the colons ([4]; daily NAC treatment): no adenocarcinomas were present
- large intestinal tumor burden ([4]; intermittent NAC treatment, p=0.001 vs control): 1 tumors/treatment group
- tumor growth ([5]; female and male rats): significantly slower
- life span ([5]; 1 to 13 weeks after inoculation): extended life span
- Ca2+ dependent and independent PKC activities (protein kinase C (PKC)): significantly inhibited
- TPK activities [6]: significantly suppressed
- DGK activity [7]: significant increased
- 8-isoprostane levels (8-isoprostane): lower levels
- potential to metastasise [8]: decreased potential to metastasise
- inhibition of clones of polygonal cells ([8]; exogenous NAC): markedly inhibited
- inhibition of spindle cells ([8]; exogenous NAC): inhibited
- side effects when used clinically ([9]; even after high doses, such as 10 g/day): no significant side effects
- clearance ([9]; in vivo): relatively rapid
- side effects after intravenous injection ([9]; paracetamol poisoning, 10 grams i.v. in 15 minutes, then half of the dose in 30 min): without any reported side effects
- activity against myeloma type tumor cells (myeloma type tumor cells): tumor proliferation inhibitory activity

SMILES: CC(=O)N[C@@H](CSSC[C@H](NC(C)=O)C(=O)O)C(=O)O [di-NAC, N,N′-diacetyl-L-cystine]
- local concentration for maximum inhibition of proliferation (no growth) [1]: about 1 mM
- time to differentiate when treated [1]: 3 days
- toxic side effects [1]: without any detectable toxic side effects
- concentration at which reversion of colon cancer cells is induced [1]: 1 mM
- concentration at which colon carcinoma completely differentiate [1]: 5 mM
- local concentration for maximum inhibition of proliferation (no growth) ([2]; NHEK): about 1 mM
- time to differentiate when treated ([2]; NHEK): 3 days
- cell-cell junctions ([2]; NHEK): increased number
- concentration of E-cadherins ([2]; NHEK): increased
- tubulin expression ([2]; NHEK): reduced
- concentration for complete suppression of cell proliferation ([2]; NHEK): 2 mM
- toxic side effects ([2]; NHEK): no toxic side effects
- concentration at which keratinocytes completely differentiate [2]: 1 mM
- minimum dose required to accelerate differentiation of normal keratinocytes [2]: 0.5 mM
- outcome of prolonged treatment [3]: complete remission of all symptoms
- most commonly reported side effect [3]: local hitching
- potential to metastasise [8]: decreased potential to metastasise
- E-cadherin expression [10]: increased
- proliferation [10]: decreased proliferation
- effect on arteriosclerosis (arteriosclerosis): inhibits arteriosclerosis
